Test results taken from patent US20180200257A1, “METHODS FOR THE TREATMENT OF INFLAMMATORY DISORDERS” (Galapagos NV, priority 2015, published 2018).

System: subjects with moderately to severely active RA who have an inadequate response to methotrexate (MTX)
Assay: Study 2 (monotherapy) - Alanine Aminotransferase (ALT) levels
Format: in vivo, human
Source text: Randomized, double-blind, placebo-controlled, multicenter, phase IIb dose finding study of Compound 1 (dosed as a [Compound 1:HCl:3H2O]) administered for 24 weeks as monotherapy to subjects with moderately to severely active rheumatoid arthritis who have an inadequate response to methotrexate alone
Double-blind, placebo-controlled, monotherapy study in subjects with moderately to severely active RA who have an inadequate response to methotrexate (MTX) (oral or parenteral).
280 subjects randomized to one of 3 doses of Compound 1 (dosed as a [Compound 1:HCl:3H2O]) or to placebo, given once daily (q.d.).
Twelve weeks of treatment with Compound 1 (dosed as a [Compound 1:HCl:3H2O]) at 50 mg, 100 mg, or 200 mg q.d.; or placebo. At Week 12, all subjects on placebo and the subjects on the 50 mg dose who have not achieved 20% improvement in swollen joint count (SJC66) and tender joint count (TJC68) will be assigned to 100 mg q.d. in a blinded fashion and will continue treatment until Week 24. Subjects in the other groups will maintain their randomized treatment until Week 24.
ALT levels determination is available at Quest Diagnostics, Clinical Trials, Quest House, 125-135 Staines Road, Hounslow, Middlesex, TW3 3JB, United Kingdom under Catalogue n#84460.
ALT catalyzes the exchange of the amino group of alanine with the oxogroup of 2-ketoglutarate to form pyruvate and glutamate. In the presence of lactic dehydrogenase, pyruvate reacts with NADH to form NAD+, measured spectrophotometrically. Guidelines for the ALT value have been issued by the association for Clinical Biochemistry and Laboratory Medicine, 130-132 Tooley Street LONDON SE1 2TU, united Kingdom, wherein the ALT value should be below 34 U/l in Female and below 52 U/L in male.
Subjects in the other groups maintained their randomized treatment until Week 24.

[1] = 12 weeks results, 50 mg q.d., week 1
[2] = 12 weeks results, 50 mg q.d., week 2
[3] = 12 weeks results, 50 mg q.d., week 4
[4] = 12 weeks results, 50 mg q.d., week 8
[5] = 12 weeks results, 50 mg q.d., week 12
[6] = 12 weeks results, 100 mg q.d., week 1
[7] = 12 weeks results, 100 mg q.d., week 2
[8] = 12 weeks results, 100 mg q.d., week 4
[9] = 12 weeks results, 100 mg q.d., week 8
[10] = 12 weeks results, 100 mg q.d., week 12
[11] = 12 weeks results, 200 mg q.d., week 1
[12] = 12 weeks results, 200 mg q.d., week 2
[13] = 12 weeks results, 200 mg q.d., week 4
[14] = 12 weeks results, 200 mg q.d., week 8
[15] = 12 weeks results, 200 mg q.d., week 12
[16] = 24 weeks results, 50 mg q.d. non responders switching to 100 mg q.d. at week 12, week 1
[17] = 24 weeks results, 50 mg q.d. non responders switching to 100 mg q.d. at week 12, week 2
[18] = 24 weeks results, 50 mg q.d. non responders switching to 100 mg q.d. at week 12, week 4
[19] = 24 weeks results, 50 mg q.d. non responders switching to 100 mg q.d. at week 12, week 8
[20] = 24 weeks results, 50 mg q.d. non responders switching to 100 mg q.d. at week 12, week 12
[21] = 24 weeks results, 50 mg q.d. non responders switching to 100 mg q.d. at week 12, week 16
[22] = 24 weeks results, 50 mg q.d. non responders switching to 100 mg q.d. at week 12, week 20
[23] = 24 weeks results, 50 mg q.d. non responders switching to 100 mg q.d. at week 12, week 24
[24] = 24 weeks results, 50 mg q.d. responders, week 1
[25] = 24 weeks results, 50 mg q.d. responders, week 2
[26] = 24 weeks results, 50 mg q.d. responders, week 4
[27] = 24 weeks results, 50 mg q.d. responders, week 8
[28] = 24 weeks results, 50 mg q.d. responders, week 12
[29] = 24 weeks results, 50 mg q.d. responders, week 16
[30] = 24 weeks results, 50 mg q.d. responders, week 20
[31] = 24 weeks results, 50 mg q.d. responders, week 24
[32] = 24 weeks results, 100 mg q.d., week 1
[33] = 24 weeks results, 100 mg q.d., week 2
[34] = 24 weeks results, 100 mg q.d., week 4
[35] = 24 weeks results, 100 mg q.d., week 8
[36] = 24 weeks results, 100 mg q.d., week 12
[37] = 24 weeks results, 100 mg q.d., week 16
[38] = 24 weeks results, 100 mg q.d., week 20
[39] = 24 weeks results, 100 mg q.d., week 24
[40] = 24 weeks results, 200 mg q.d., week 1
[41] = 24 weeks results, 200 mg q.d., week 2
[42] = 24 weeks results, 200 mg q.d., week 4
[43] = 24 weeks results, 200 mg q.d., week 8
[44] = 24 weeks results, 200 mg q.d., week 12
[45] = 24 weeks results, 200 mg q.d., week 16
[46] = 24 weeks results, 200 mg q.d., week 20
[47] = 24 weeks results, 200 mg q.d., week 24
[48] = 24 weeks results, placebo switching to 100 mg q.d. at week 12, week 16
[49] = 24 weeks results, placebo switching to 100 mg q.d. at week 12, week 20
[50] = 24 weeks results, placebo switching to 100 mg q.d. at week 12, week 24

## O=C(Nc1nc2cccc(-c3ccc(CN4CCS(=O)(=O)CC4)cc3)n2n1)C1CC1 [Compound 1, cyclopropanecarboxylic acid {5-[4-(1,1-dioxo-thiomorpholin-4-ylmethyl)-phenyl]-[1,2,4]triazolo[1,5-a]pyridin-2-yl}-amide]
[1]
  Study 2 - ALT Mean CFB: −1.4 IU/L
  Study 2 - ALT Mean percentage CFB: −1.29%
[2]
  Study 2 - ALT Mean CFB: −2.6 IU/L
  Study 2 - ALT Mean percentage CFB: −3.25%
[3]
  Study 2 - ALT Mean CFB: −2.2 IU/L
  Study 2 - ALT Mean percentage CFB: −3.73%
[4]
  Study 2 - ALT Mean CFB: −3.0 IU/L
  Study 2 - ALT Mean percentage CFB: −0.73%
[5]
  Study 2 - ALT Mean CFB: −1.4 IU/L
  Study 2 - ALT Mean percentage CFB: 1.77%
[6]
  Study 2 - ALT Mean CFB: 0.4 IU/L
  Study 2 - ALT Mean percentage CFB: 13.98%
[7]
  Study 2 - ALT Mean CFB: 0.7 IU/L
  Study 2 - ALT Mean percentage CFB: 13.25%
[8]
  Study 2 - ALT Mean CFB: 0.3 IU/L
  Study 2 - ALT Mean percentage CFB: 17.82%
[9]
  Study 2 - ALT Mean CFB: −0.5 IU/L
  Study 2 - ALT Mean percentage CFB: 7.83%
[10]
  Study 2 - ALT Mean CFB: 1.3 IU/L
  Study 2 - ALT Mean percentage CFB: 14.61%
[11]
  Study 2 - ALT Mean CFB: −1.8 IU/L
  Study 2 - ALT Mean percentage CFB: −0.92%
[12]
  Study 2 - ALT Mean CFB: −1.1 IU/L
  Study 2 - ALT Mean percentage CFB: 1.07%
[13]
  Study 2 - ALT Mean CFB: −1.4 IU/L
  Study 2 - ALT Mean percentage CFB: 4.71%
[14]
  Study 2 - ALT Mean CFB: −0.8 IU/L
  Study 2 - ALT Mean percentage CFB: 8.41%
[15]
  Study 2 - ALT Mean CFB: −1.1 IU/L
  Study 2 - ALT Mean percentage CFB: 5.69%
[16]
  Study 2 - ALT Mean CFB: −0.1 IU/L
  Study 2 - ALT Mean percentage CFB: 0.97%
[17]
  Study 2 - ALT Mean CFB: −0.2 IU/L
  Study 2 - ALT Mean percentage CFB: −0.54%
[18]
  Study 2 - ALT Mean CFB: 0.6 IU/L
  Study 2 - ALT Mean percentage CFB: 4.48%
[19]
  Study 2 - ALT Mean CFB: −1.3 IU/L
  Study 2 - ALT Mean percentage CFB: −4.46%
[20]
  Study 2 - ALT Mean CFB: −0.9 IU/L
  Study 2 - ALT Mean percentage CFB: −1.26%
[21]
  Study 2 - ALT Mean CFB: 0.9 IU/L
  Study 2 - ALT Mean percentage CFB: 6.27%
[22]
  Study 2 - ALT Mean CFB: 0.3 IU/L
  Study 2 - ALT Mean percentage CFB: 4.86%
[23]
  Study 2 - ALT Mean CFB: 3.2 IU/L
  Study 2 - ALT Mean percentage CFB: 22.47%
[24]
  Study 2 - ALT Mean CFB: −1.7 IU/L
  Study 2 - ALT Mean percentage CFB: −1.89%
[25]
  Study 2 - ALT Mean CFB: −3.3 IU/L
  Study 2 - ALT Mean percentage CFB: −3.98%
[26]
  Study 2 - ALT Mean CFB: −3.0 IU/L
  Study 2 - ALT Mean percentage CFB: −5.93%
[27]
  Study 2 - ALT Mean CFB: −3.4 IU/L
  Study 2 - ALT Mean percentage CFB: 0.30%
[28]
  Study 2 - ALT Mean CFB: −1.6 IU/L
  Study 2 - ALT Mean percentage CFB: 2.63%
[29]
  Study 2 - ALT Mean CFB: −0.2 IU/L
  Study 2 - ALT Mean percentage CFB: 17.03%
[30]
  Study 2 - ALT Mean CFB: −0.5 IU/L
  Study 2 - ALT Mean percentage CFB: 8.38%
[31]
  Study 2 - ALT Mean CFB: −0.2 IU/L
  Study 2 - ALT Mean percentage CFB: 16.54%
[32]
  Study 2 - ALT Mean CFB: 0.4 IU/L
  Study 2 - ALT Mean percentage CFB: 13.98%
[33]
  Study 2 - ALT Mean CFB: 0.7 IU/L
  Study 2 - ALT Mean percentage CFB: 13.25%
[34]
  Study 2 - ALT Mean CFB: 0.3 IU/L
  Study 2 - ALT Mean percentage CFB: 17.82%
[35]
  Study 2 - ALT Mean CFB: −0.5 IU/L
  Study 2 - ALT Mean percentage CFB: 7.83%
[36]
  Study 2 - ALT Mean CFB: 1.3 IU/L
  Study 2 - ALT Mean percentage CFB: 14.61%
[37]
  Study 2 - ALT Mean CFB: 4.1 IU/L
  Study 2 - ALT Mean percentage CFB: 25.66%
[38]
  Study 2 - ALT Mean CFB: 1.8 IU/L
  Study 2 - ALT Mean percentage CFB: 37.63%
[39]
  Study 2 - ALT Mean CFB: 0.4 IU/L
  Study 2 - ALT Mean percentage CFB: 20.33%
[40]
  Study 2 - ALT Mean CFB: −1.8 IU/L
  Study 2 - ALT Mean percentage CFB: −0.92%
[41]
  Study 2 - ALT Mean CFB: −1.1 IU/L
  Study 2 - ALT Mean percentage CFB: 1.07%
[42]
  Study 2 - ALT Mean CFB: −1.4 IU/L
  Study 2 - ALT Mean percentage CFB: 4.71%
[43]
  Study 2 - ALT Mean CFB: −0.8 IU/L
  Study 2 - ALT Mean percentage CFB: 8.41%
[44]
  Study 2 - ALT Mean CFB: −1.1 IU/L
  Study 2 - ALT Mean percentage CFB: 5.69%
[45]
  Study 2 - ALT Mean CFB: 0.4 IU/L
  Study 2 - ALT Mean percentage CFB: 17.47%
[46]
  Study 2 - ALT Mean CFB: −0.6 IU/L
  Study 2 - ALT Mean percentage CFB: 6.69%
[47]
  Study 2 - ALT Mean CFB: −1.3 IU/L
  Study 2 - ALT Mean percentage CFB: 5.83%
[48]
  Study 2 - ALT Mean CFB: 0.4 IU/L
  Study 2 - ALT Mean percentage CFB: 15.03%
[49]
  Study 2 - ALT Mean CFB: 0.8 IU/L
  Study 2 - ALT Mean percentage CFB: 17.28%
[50]
  Study 2 - ALT Mean CFB: 0.9 IU/L
  Study 2 - ALT Mean percentage CFB: 18.10%
